The record followed here is ChEMBL document CHEMBL1201862, “PubChem BioAssay data set” (2004).

Molecules are shown by their SMILES. Activity calls are given as the source filed them. Cut-off read from the data, not from the text of the source, for most assays here: actives have a measured IC50 and inactives only a lower limit.

The target in experiment [1] is DNA dC->dU-editing enzyme APOBEC-3A (Homo sapiens, UniProt P31941). The experiment is described as follows: A3A deaminase inhibition for selectivity – biochemical, dose response (AID 504722). The experiment is classed as functional.
Experiment [2] concerns the target DNA dC->dU-editing enzyme APOBEC-3G (Homo sapiens, UniProt Q9HC16). Nature of the experiment: Dose Response confirmation of small molecule APOBEC3G DNA Deaminase Inhibitors via a fluorescence-based single-stranded DNA deaminase assay. [Related pubchem assays (depositor defined):AID493012, AID493028]. The experiment is classed as functional.
Experiment [3] has as its target T1, Rac GTPase-activating protein 1 (Homo sapiens, UniProt Q9H0H5).
T1 sequence (Q9H0H5 whole entry): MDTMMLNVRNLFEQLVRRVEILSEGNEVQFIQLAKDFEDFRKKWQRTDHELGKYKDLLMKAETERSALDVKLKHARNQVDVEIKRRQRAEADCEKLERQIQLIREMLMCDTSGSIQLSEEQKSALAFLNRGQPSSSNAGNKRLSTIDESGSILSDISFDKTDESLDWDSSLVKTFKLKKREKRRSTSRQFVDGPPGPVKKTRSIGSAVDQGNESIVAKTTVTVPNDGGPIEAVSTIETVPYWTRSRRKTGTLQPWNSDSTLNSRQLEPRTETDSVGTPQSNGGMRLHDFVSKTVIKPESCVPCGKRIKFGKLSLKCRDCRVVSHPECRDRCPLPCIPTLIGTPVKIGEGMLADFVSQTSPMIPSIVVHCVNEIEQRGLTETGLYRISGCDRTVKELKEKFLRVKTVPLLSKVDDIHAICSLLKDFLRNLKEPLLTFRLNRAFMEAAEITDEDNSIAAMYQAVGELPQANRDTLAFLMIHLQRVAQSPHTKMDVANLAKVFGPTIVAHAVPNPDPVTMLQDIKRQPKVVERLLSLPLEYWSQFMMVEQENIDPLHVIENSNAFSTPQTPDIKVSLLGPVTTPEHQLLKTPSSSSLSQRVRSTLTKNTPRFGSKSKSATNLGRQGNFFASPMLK
Nature of the experiment: blockers of MgcRacGAP-driven Rac1 GTP hydrolysis – biochemical, ADP Hunter fluorescence, primary and confirmatory, confirmation (AID 624330). The experiment is classed as functional.

The target of experiment [4] is Glyceraldehyde-3-phosphate dehydrogenase (Homo sapiens, UniProt P04406).
Experiment [5] addresses T2, Alkaline phosphatase, tissue-nonspecific isozyme (Homo sapiens, UniProt P05186).
T2 sequence (P05186 whole entry): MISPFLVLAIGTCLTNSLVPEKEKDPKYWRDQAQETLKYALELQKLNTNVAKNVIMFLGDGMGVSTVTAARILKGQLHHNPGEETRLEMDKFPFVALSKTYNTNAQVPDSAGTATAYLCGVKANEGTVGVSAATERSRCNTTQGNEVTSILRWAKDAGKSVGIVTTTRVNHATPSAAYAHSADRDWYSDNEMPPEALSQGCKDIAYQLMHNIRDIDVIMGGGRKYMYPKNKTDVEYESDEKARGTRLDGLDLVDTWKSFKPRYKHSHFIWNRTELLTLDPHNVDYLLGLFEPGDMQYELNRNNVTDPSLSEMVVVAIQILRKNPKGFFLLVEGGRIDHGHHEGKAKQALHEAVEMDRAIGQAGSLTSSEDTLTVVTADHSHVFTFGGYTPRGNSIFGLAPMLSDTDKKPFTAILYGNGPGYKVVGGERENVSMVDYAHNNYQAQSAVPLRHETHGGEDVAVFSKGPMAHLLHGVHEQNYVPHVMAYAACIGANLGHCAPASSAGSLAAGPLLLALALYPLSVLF
The experiment is described as follows: potency against alkaline phosphatase TNAP – biochemical, luminescent, dose response, SAR follow-up (AID 1056).

In experiment [6] the target is T3, Hexokinase (Trypanosoma brucei, UniProt Q38C41).
T3 sequence (Q38C41 whole entry): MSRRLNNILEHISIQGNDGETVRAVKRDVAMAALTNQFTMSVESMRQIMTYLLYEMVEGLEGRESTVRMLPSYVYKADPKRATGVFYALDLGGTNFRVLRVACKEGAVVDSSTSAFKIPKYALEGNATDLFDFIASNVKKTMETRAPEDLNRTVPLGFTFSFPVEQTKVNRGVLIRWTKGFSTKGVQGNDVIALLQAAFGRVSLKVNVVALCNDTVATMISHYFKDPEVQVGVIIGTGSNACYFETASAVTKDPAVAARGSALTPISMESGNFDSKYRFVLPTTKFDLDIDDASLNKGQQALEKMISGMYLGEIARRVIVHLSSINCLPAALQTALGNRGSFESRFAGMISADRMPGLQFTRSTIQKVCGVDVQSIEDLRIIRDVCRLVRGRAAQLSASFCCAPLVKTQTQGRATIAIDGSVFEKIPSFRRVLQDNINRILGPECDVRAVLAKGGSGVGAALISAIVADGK
Nature of the experiment: Confirmation assay for inhibitors of Trypanosoma brucei hexokinase 1-Analogue-first series. [Related pubchem assays (depositor defined):AID1430, AID1632, AID2516, AID2560, AID2579, AID2600, AID449725, AID492951]. The experiment is classed as functional.

The target in experiment [7] is T4, E3 ubiquitin-protein ligase XIAP (Homo sapiens, UniProt P98170). The experiment is described as follows: Counter Screen using XIAP-Bir3 for Chemical Antagonists of Bir1/2 domains of IAP-family anti-apoptotic proteins. [Related pubchem assays (depositor defined):AID1018, AID1449, AID1514, AID1638, AID1749, AID1750, AID488957, AID488963]. A general note: The purpose of a counterscreen is to sort out artefacts and off-target activity.

The target in experiment [8] is T4, E3 ubiquitin-protein ligase XIAP. The experiment is described as follows: small molecules displacing peptide from XIAP – biochemical, IAP family, fluorescence polarization (AID 1018). The experiment is classed as functional. A general note: Polarisation of emitted light reports the rotation of a fluorescent probe.
In experiment [9] the target is T5, SUMO-activating enzyme (Homo sapiens, UniProt Q9UBT2). Nature of the experiment: blockers of UBC9-mediated SUMO conjugation – biochemical, AlphaScreen, SUMOylation inhibitor project, confirmation (AID 2018). The experiment is classed as functional.
Experiment [10] concerns the target T6, Voltage-gated N-type calcium channel alpha-1B subunit/Amyloid beta A4 precursor protein-binding family A member 1 (Homo sapiens, UniProt Q00975+Q02410). The experiment is classed as protein assay.
In experiment [11] the target is T6, Voltage-gated N-type calcium channel alpha-1B subunit/Amyloid beta A4 precursor protein-binding family A member 1. The experiment is classed as protein assay. This is another data set of the same source.
Experiment [12] addresses T7, Heat shock factor protein 1 (Mus musculus, UniProt P38532).
T7 sequence (P38532 whole entry): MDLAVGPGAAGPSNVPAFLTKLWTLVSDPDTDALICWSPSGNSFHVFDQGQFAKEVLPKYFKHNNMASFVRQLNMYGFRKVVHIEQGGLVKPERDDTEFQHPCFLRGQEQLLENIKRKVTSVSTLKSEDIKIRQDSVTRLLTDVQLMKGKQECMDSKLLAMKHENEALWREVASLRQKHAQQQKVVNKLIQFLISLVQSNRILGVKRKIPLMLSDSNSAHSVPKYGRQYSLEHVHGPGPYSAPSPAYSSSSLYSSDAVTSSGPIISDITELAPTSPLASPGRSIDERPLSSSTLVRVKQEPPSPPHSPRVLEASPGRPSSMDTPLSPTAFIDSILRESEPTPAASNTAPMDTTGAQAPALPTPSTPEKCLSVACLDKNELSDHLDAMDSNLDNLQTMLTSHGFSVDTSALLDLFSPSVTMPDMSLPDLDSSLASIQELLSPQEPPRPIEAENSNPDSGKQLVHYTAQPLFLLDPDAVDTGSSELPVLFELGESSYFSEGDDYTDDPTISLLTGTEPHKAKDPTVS
The experiment is described as follows: enhancement of HSF1-driven luciferase signal – cell-based, NIH3T3, luminescence, dose retest, confirmation (AID 435004).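 Note: stress induced by proteasome inhibitor MG132 added 30 min after compound; luciferase reporter driven by HSF1 response element in NIH3T3 cells; actives raise luminescence as potentiators of the MG132 stress response.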 The experiment is classed as functional.

Experiment [13] concerns the target T8, Microphthalmia-associated transcription factor (Homo sapiens, UniProt O75030).
T8 sequence (O75030 whole entry): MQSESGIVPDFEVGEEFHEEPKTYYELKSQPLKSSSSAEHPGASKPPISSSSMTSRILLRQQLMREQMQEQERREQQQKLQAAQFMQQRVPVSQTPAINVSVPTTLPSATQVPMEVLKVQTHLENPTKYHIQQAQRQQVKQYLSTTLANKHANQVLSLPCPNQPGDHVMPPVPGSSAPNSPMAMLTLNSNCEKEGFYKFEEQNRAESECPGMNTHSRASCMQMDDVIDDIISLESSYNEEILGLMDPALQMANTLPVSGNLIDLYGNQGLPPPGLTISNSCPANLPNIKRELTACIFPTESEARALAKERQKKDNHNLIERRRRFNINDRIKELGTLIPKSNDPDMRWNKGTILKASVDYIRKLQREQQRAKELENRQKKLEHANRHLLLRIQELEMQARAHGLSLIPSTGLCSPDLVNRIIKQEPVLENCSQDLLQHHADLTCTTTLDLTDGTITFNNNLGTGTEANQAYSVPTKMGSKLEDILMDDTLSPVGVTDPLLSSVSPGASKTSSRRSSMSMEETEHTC
Nature of the experiment: reducers of TRPM1 reporter luminescence, concentration series – cell-based, SK-MEL-5, cherry-picked, set 3, MITF inhibitor project, dose response (AID 493073).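 Note: SK-MEL-5 melanoma cells with luciferase driven by the MITF target TRPM1 promoter.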 The experiment is classed as functional.

The target of experiment [14] is T5, SUMO-activating enzyme. The experiment is described as follows: blockers of SAE1/SAE2–UBC9 SUMO transfer – biochemical, HTRF, uHTS, primary screen (AID 2006). The experiment is classed as protein-complex assay.
A short description of experiment [15]: Luminescence Cell-Based Dose Retest to Confirm Inhibitors of Cancer Stem Cells. [Related pubchem assays (depositor defined):AID2717, AID2721]. The experiment is classed as functional. The following applies: Homo sapiens.

T6 sequence (Q00975 whole entry): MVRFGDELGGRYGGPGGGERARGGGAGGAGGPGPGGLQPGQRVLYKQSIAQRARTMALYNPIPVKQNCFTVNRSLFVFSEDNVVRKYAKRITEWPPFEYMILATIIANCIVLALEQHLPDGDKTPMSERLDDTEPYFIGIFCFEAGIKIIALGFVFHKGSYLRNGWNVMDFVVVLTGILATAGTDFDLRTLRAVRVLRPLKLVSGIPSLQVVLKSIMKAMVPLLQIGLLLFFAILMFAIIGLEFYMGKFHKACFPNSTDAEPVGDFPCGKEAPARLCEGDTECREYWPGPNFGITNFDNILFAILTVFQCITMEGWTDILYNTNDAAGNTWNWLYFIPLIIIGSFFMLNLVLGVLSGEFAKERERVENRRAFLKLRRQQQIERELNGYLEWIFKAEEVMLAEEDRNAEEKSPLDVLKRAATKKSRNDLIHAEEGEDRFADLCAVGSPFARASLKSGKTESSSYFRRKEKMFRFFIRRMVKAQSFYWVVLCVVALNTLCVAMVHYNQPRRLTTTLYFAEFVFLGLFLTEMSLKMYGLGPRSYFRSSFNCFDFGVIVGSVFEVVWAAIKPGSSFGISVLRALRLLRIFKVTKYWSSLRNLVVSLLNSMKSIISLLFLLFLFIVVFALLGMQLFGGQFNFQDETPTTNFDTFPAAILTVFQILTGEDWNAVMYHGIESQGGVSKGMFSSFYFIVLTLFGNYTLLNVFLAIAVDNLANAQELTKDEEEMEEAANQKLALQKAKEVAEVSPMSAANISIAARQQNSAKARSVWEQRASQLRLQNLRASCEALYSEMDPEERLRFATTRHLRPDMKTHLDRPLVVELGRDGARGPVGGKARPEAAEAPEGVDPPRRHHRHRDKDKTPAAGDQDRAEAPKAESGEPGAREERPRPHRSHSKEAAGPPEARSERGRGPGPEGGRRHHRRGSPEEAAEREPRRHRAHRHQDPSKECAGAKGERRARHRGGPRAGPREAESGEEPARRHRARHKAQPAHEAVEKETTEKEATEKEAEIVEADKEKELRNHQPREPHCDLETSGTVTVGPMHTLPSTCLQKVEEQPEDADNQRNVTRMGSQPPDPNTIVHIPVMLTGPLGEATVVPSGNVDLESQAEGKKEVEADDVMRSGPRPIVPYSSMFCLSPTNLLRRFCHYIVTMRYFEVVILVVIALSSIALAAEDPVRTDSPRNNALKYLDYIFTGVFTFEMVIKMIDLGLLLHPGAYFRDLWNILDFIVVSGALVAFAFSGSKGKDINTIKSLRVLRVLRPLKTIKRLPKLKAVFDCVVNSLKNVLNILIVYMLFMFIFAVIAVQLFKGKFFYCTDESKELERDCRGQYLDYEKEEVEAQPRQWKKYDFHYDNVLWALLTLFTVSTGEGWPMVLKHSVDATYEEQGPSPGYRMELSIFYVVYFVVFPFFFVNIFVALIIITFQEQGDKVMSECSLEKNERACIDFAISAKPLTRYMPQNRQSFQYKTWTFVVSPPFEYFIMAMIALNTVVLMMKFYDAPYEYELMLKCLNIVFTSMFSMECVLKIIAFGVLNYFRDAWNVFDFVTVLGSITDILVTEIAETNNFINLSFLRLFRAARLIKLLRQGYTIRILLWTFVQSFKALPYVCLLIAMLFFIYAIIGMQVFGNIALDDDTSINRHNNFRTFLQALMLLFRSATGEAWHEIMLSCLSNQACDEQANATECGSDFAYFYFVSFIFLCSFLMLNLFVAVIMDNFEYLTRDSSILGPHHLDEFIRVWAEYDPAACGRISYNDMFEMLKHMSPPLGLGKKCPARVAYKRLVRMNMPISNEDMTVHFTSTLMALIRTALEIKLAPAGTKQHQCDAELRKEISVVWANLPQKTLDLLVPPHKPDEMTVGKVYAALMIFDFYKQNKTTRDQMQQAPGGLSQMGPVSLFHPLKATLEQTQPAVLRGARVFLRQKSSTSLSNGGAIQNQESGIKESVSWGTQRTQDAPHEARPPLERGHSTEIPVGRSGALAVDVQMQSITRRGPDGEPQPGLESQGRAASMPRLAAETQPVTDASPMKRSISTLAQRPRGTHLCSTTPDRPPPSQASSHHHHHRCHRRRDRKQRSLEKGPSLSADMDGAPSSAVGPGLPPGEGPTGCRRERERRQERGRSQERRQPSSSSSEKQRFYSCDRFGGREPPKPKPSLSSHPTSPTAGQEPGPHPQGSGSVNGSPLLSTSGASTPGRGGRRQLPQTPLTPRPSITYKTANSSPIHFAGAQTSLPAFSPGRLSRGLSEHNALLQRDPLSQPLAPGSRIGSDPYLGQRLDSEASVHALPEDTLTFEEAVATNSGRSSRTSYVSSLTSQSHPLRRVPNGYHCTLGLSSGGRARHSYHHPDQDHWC
T6 sequence (Q02410 whole entry): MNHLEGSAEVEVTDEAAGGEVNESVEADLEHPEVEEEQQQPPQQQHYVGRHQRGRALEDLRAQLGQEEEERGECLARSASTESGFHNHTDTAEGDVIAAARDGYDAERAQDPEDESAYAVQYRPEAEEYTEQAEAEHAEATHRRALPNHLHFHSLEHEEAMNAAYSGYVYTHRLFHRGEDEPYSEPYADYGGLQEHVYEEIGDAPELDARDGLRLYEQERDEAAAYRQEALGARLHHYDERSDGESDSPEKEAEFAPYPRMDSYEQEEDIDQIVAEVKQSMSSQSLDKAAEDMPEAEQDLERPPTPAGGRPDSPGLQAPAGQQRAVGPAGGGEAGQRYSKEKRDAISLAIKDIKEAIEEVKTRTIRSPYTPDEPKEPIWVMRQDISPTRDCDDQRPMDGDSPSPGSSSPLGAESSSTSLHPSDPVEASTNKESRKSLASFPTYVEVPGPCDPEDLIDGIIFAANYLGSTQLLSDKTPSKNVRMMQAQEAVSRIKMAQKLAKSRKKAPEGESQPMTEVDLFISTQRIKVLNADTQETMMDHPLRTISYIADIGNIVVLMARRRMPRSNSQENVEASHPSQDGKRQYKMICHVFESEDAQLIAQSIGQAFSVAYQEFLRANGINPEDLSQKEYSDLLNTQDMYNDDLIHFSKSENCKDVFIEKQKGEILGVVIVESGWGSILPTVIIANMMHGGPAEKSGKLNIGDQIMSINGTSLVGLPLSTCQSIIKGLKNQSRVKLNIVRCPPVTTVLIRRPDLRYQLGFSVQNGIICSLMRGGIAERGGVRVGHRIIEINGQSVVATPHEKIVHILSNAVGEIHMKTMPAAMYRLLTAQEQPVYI
T4 sequence (P98170 whole entry): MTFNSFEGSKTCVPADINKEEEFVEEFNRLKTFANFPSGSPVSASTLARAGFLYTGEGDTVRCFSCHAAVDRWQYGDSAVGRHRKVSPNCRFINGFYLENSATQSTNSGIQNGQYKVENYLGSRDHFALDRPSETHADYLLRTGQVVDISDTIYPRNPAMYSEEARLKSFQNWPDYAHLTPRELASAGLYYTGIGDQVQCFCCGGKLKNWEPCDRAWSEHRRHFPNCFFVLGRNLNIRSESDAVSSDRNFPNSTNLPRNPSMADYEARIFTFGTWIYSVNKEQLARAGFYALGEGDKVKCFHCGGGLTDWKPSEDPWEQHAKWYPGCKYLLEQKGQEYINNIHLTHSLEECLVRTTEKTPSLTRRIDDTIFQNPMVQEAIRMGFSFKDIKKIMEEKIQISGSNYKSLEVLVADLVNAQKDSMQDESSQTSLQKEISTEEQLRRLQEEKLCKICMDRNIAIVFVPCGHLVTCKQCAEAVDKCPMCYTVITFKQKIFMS
Sequence of Glyceraldehyde-3-phosphate dehydrogenase (P04406 whole entry): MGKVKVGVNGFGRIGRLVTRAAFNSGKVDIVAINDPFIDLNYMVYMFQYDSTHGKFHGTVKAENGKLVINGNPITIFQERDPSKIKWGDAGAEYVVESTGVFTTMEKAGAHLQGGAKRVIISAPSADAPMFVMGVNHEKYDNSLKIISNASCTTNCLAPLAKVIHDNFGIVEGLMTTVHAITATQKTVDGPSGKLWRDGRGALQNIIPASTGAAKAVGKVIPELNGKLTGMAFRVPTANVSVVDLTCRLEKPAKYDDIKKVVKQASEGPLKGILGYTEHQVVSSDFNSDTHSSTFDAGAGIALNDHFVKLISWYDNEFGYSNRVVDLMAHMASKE
T5 sequence (Q9UBE0 whole entry): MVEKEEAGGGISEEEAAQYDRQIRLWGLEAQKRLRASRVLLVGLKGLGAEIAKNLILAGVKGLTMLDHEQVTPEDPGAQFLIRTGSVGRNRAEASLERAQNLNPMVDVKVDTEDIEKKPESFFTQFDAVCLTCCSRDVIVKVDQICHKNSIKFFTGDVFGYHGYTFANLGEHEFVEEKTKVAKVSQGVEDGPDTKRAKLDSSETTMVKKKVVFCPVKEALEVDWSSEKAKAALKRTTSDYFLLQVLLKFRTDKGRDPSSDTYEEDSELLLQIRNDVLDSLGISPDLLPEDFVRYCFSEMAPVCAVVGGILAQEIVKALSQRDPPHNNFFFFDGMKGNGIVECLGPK
T5 sequence (Q9UBT2 whole entry): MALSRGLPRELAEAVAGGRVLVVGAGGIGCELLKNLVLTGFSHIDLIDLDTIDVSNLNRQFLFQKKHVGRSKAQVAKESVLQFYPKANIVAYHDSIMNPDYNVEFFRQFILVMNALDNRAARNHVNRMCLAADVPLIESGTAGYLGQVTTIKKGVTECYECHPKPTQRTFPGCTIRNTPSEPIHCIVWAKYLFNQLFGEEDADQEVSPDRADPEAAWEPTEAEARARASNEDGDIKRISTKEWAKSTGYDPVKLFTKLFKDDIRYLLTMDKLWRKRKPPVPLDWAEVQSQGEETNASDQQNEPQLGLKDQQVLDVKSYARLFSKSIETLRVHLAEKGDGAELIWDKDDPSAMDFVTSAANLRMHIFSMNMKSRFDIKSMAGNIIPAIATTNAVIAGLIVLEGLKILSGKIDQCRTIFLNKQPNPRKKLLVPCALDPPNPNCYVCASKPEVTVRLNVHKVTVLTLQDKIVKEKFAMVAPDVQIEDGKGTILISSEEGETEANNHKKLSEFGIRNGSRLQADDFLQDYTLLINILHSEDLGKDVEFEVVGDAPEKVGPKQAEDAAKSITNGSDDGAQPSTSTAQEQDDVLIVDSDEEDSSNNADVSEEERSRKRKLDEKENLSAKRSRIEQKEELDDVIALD

For orientation: IC50 means the point on the concentration scale where inhibition reaches its midpoint. In the case of `O=C(Nc1nnc(S)s1)c1ccco1`, the IC50 is > 100 µM (inactive) in [1], 5.51 µM (active) in [2] and 102 µM (active) in [3].

Regarding `COC(=O)c1cc(-c2ccc3ccccc3c2)[nH]n1`, the IC50 in experiment [4] is > 100 µM (not active); in experiment [5], 0.6 µM (active).

Regarding `Cc1ccccc1S(=O)(=O)Nc1nc2ccccc2nc1Cl`, the IC50 in experiment [4] is > 100 µM (not active); in [5], > 100 µM (inactive).

Regarding `COc1ccc(CC(=O)Nc2cc(Cl)ccc2C(=O)O)cc1`, in [6], the IC50 was > 25 µM (inactive).

On to `c1c(CN2CCCCC2)n[nH]c1C1CCCCC1`, for which the IC50 in experiment [7] was > 100 µM (inactive); in experiment [8], > 100 µM (not active).

`N#Cc1c(=O)c2nc(NCc3ccccc3)ncc2n2ccccc12`: the IC50 in experiment [9] is 14.3 µM (active).

`CN1CCN(C(=O)Cc2nc3ccccc3[nH]2)CC1`: the IC50 in experiment [7] is > 100 µM (inactive); in experiment [8] it was > 100 µM (not active).

In general, EC50 refers to the concentration at which the effect is half-maximal. Usually AC50 stands for the midpoint of the concentration-response curve, whichever way the signal moves. Consider `CCOc1cc(/C=C\[N+](=O)[O-])ccc1OCC(=O)N1CCOCC1`, for which the results for the IC50 in experiment [10] and in experiment [11] were 9.89 µM (active) and 29.4 µM (active), respectively. The EC50 in experiment [12] was 11 µM (active). Moreover, in experiment [13], the AC50 was 7.35 µM (active).

As to `COc1ccc(OC)c(S(=O)(=O)n2cc(C(N)=O)c3ccccc32)c1`, the IC50 in experiment [4] is > 100 µM (not active); in experiment [5] it was > 100 µM (inactive).

Consider `C/C(Cn1nnc([N+](=O)[O-])n1)=N\NC(=O)c1ccc(C)cc1`, for which the values for the IC50 in [7] and in [8] were > 100 µM (inactive) and > 100 µM (not active), respectively.

For `CC(C)c1cccc(C(=O)Nc2cc(Cl)ccc2C(=O)O)c1`, the IC50 in experiment [6] was > 25 µM (inactive).

In the case of `O=C1C(C2=NC(c3ccccn3)C3C(=O)N(c4ccc(Cl)cc4Cl)C(=O)C23)=C(O)c2ccccc21` (configuration not stated), the IC50 in experiment [9] is 34.6 µM (active); in experiment [14], 15 µM (active). The AC50 in experiment [15] was 13.6 µM (active).

Consider `Cc1ccc(N(CC(O)COCc2ccco2)S(=O)(=O)c2ccc(C)cc2)cc1` (configuration not stated), for which the IC50 in [10] was 28 µM (active); in experiment [11], > 50 µM (inactive).
